Our source for the IC50 values is BindingDB's records for doi:10.1021/jm00039a025 (Wellcome Research Laboratories, 1994).

The assay can be described thus: Ability to inhibit glycinamide ribonucleotide transformylase (GAR-Tfase) in vitro, using hog liver with (6R)-10-formyl-FH4 as cofactor.

For `Nc1nc(N)c(CCCNc2cnc(C(=O)N[C@H](CCC(=O)O)C(=O)O)s2)c(=O)[nH]1` [(S)-2-({5-[3-(2,4-Diamino-6-oxo-1,6-dihydro-pyrimidin-5-yl)-propylamino]-thiazole-2-carbonyl}-amino)-pentanedioic acid], the midpoint of inhibition, the IC50, lay at 140 nM.

On to `Nc1nc(N)c(CCCNc2ccc(C(=O)N[C@H](CCC(=O)O)C(=O)O)s2)c(=O)[nH]1` [(S)-2-({5-[3-(2,4-Diamino-6-oxo-1,6-dihydro-pyrimidin-5-yl)-propylamino]-thiophene-2-carbonyl}-amino)-pentanedioic acid], for which it took 2060 nM to reach half-maximal inhibition (IC50).

As a reminder, the IC50 is the concentration that inhibits the measured activity by half.
